Experimental data taken from PubChem BioAssay AID306 (DTP/NCI, 2004).
Several values for one entry are separate records, joined by “and”; a condition that tells them apart may be missing. Identical values can stand only once. Toxic doses and inconclusive results are not listed.

System: BDF1 mice, L1210 Methyl-GAG-resistant leukemia, survival T/C
Assay: NCI In Vivo Anticancer Drug Screen. Data for tumor model L1210 Leukemia resistant to Methyl-GAG; NSC 32946 (subcutaneous) in B6D2F1 (BDF1) mice
Details: endpoint: mean survival time, higher = longer survival
Procedure: The antitumor activity of compounds was measured in mice bearing transplantable tumors. Survival or tumor size were measured and the results are expressed as the measurement made in the treated group (T) divided by the measurement made in the vehicle treated control group (C). The tumor model used in this assay is L1210 Leukemia resistant to Methyl-GAG; NSC 32946 (subcutaneous) in B6D2F1 (BDF1) mice

[1] = dose: 12.5 mg/kg/injection, schedule: Q01DX Z (ip), vehicle: carboxymethylcellulose (CMC)
[2] = dose: 25.0 mg/kg/injection, schedule: Q01DX Z (ip), vehicle: carboxymethylcellulose (CMC)
[3] = dose: 50.0 mg/kg/injection, schedule: Q01DX Z (ip), vehicle: carboxymethylcellulose (CMC)
[4] = dose: 100.0 mg/kg/injection, schedule: Q01DX Z (ip), vehicle: carboxymethylcellulose (CMC)
[5] = dose: 62.5 mg/kg/injection, schedule: Q01DX Z (sc), vehicle: steriod suspending solution
[6] = dose: 125.0 mg/kg/injection, schedule: Q01DX Z (sc), vehicle: steriod suspending solution
[7] = dose: 250.0 mg/kg/injection, schedule: Q01DX Z (sc), vehicle: steriod suspending solution
[8] = dose: 2.5 mg/kg/injection, schedule: Q01DX Z (ip), vehicle: carboxymethylcellulose (CMC)

Q: `CCOC(=O)NP(=O)(N1CC1(C)C)N1CC1(C)C` (stereo unspecified) was tested. Which T/C (dose: 62.5 mg/kg/injection, schedule: Q01DX Z (ip), vehicle: carboxymethylcellulose (CMC)) did it give?
A: 95 % of control

Q: What about the T/C (dose: 125.0 mg/kg/injection, schedule: Q01DX Z (ip), vehicle: carboxymethylcellulose (CMC)) of the same compound?
A: 95 % of control

Q: And the T/C (dose: 250.0 mg/kg/injection, schedule: Q01DX Z (ip), vehicle: carboxymethylcellulose (CMC))?
A: 97 % of control

Q: What about the T/C (dose: 500.0 mg/kg/injection, schedule: Q01DX Z (ip), vehicle: carboxymethylcellulose (CMC)) of the same compound?
A: 93 % of control

Q: `O=c1[nH]cc(F)c(=O)[nH]1` was tested. Which T/C (dose: 6.25 mg/kg/injection, schedule: Q01DX Z (ip), vehicle: saline) did it give?
A: 102 % of control

Q: And the T/C (dose: 100.0 mg/kg/injection, schedule: Q01DX Z (ip), vehicle: saline)?
A: 110 % of control

Q: `CCCSc1ncnc2nc[nH]c12` was tested. Which T/C (dose: 6.3 mg/kg/injection, schedule: Q01DX Z (ip), vehicle: carboxymethylcellulose (CMC)) did it give?
A: 107 % of control

Q: What about the T/C [1] of the same compound?
A: 110 % of control

Q: And the T/C [2]?
A: 110 % of control and 118 % of control

Q: And the T/C [3]?
A: 117 % of control and 123 % of control

Q: And the T/C [4]?
A: 110 % of control

Q: How did the T/C (dose: 25.0 mg/kg/injection, schedule: Q01DX Z (ip), vehicle: other) turn out when `Nc1nc2n[nH]nc2c(=O)[nH]1` was run?
A: 159 % of control

Q: What about the T/C (dose: 100.0 mg/kg/injection, schedule: Q01DX Z (ip), vehicle: other) of the same compound?
A: 162 % of control and 168 % of control

Q: What about the T/C (dose: 400.0 mg/kg/injection, schedule: Q01DX Z (ip), vehicle: other) of the same compound?
A: 177 % of control

Q: For `NC(=O)N(CCCl)N=O`, which T/C (dose: 0.5 mg/kg/injection, schedule: Q01DX Z (ip), vehicle: carboxymethylcellulose (CMC)) is on record?
A: 95 % of control

Q: What about the T/C (dose: 1.0 mg/kg/injection, schedule: Q01DX Z (ip), vehicle: carboxymethylcellulose (CMC)) of the same compound?
A: 96 % of control and 101 % of control

Q: And the T/C (dose: 2.0 mg/kg/injection, schedule: Q01DX Z (ip), vehicle: carboxymethylcellulose (CMC))?
A: 100 % of control and 101 % of control

Q: Which T/C (dose: 15.0 mg/kg/injection, schedule: Q01DX Z (ip), vehicle: carboxymethylcellulose (CMC)) does the source give for `Cc1cc(N(CCCl)CCCl)ccc1N=Nc1ccccc1C(=O)O` here?
A: 96 % of control

Q: What about the T/C (dose: 30.0 mg/kg/injection, schedule: Q01DX Z (ip), vehicle: carboxymethylcellulose (CMC)) of the same compound?
A: 99 % of control

Q: What about the T/C (dose: 60.0 mg/kg/injection, schedule: Q01DX Z (ip), vehicle: carboxymethylcellulose (CMC)) of the same compound?
A: 96 % of control

Q: With `COc1cc2c(c(OC)c1OC)-c1ccc(OC)c(=O)cc1[C@@H](NC(C)=O)CC2` as the compound, how does the T/C (dose: 0.12 mg/kg/injection, schedule: Q01DX Z (ip), vehicle: saline) read?
A: 95 % of control

Q: And the T/C (dose: 0.25 mg/kg/injection, schedule: Q01DX Z (ip), vehicle: saline)?
A: 96 % of control

Q: And the T/C (dose: 0.5 mg/kg/injection, schedule: Q01DX Z (ip), vehicle: saline)?
A: 101 % of control

Q: What does the source list for `CC/C(=C(/CC)c1ccc(O)cc1)c1ccc(O)cc1`?
A: T/C (dose: 31.25 mg/kg/injection, schedule: Q01DX Z (sc), vehicle: steriod suspending solution): 97 % of control; T/C [5]: 110 % of control; T/C [6]: 100 % of control; T/C [7]: 87 % of control

Q: What does the source list for `Nc1ncnc2c1ccn2C1OC(CO)C(O)C1O` (stereo unspecified)?
A: T/C (dose: 0.31 mg/kg/injection, schedule: Q01DX Z (ip), vehicle: carboxymethylcellulose (CMC)): 89 % of control and 97 % of control; T/C (dose: 0.63 mg/kg/injection, schedule: Q01DX Z (ip), vehicle: carboxymethylcellulose (CMC)): 91 % of control and 102 % of control; T/C (dose: 1.25 mg/kg/injection, schedule: Q01DX Z (ip), vehicle: carboxymethylcellulose (CMC)): 97 % of control and 112 % of control; T/C [8]: 94 % of control

Q: Which T/C (dose: 1.6 mg/kg/injection, schedule: Q01DX Z (ip), vehicle: carboxymethylcellulose (CMC)) does the source give for `Cn1c(N)nc2nc[nH]c2c1=S` here?
A: 98 % of control

Q: What about the T/C (dose: 3.1 mg/kg/injection, schedule: Q01DX Z (ip), vehicle: carboxymethylcellulose (CMC)) of the same compound?
A: 100 % of control and 104 % of control

Q: And the T/C (dose: 6.25 mg/kg/injection, schedule: Q01DX Z (ip), vehicle: carboxymethylcellulose (CMC))?
A: 97 % of control and 102 % of control

Q: And the T/C [1]?
A: 93 % of control and 98 % of control and 102 % of control

Q: And the T/C [2]?
A: 102 % of control

Q: What about the T/C [3] of the same compound?
A: 100 % of control and 111 % of control

Q: And the T/C [4]?
A: 101 % of control

Q: And the T/C (dose: 200.0 mg/kg/injection, schedule: Q01DX Z (ip), vehicle: carboxymethylcellulose (CMC))?
A: 97 % of control

Q: With `COC12C(COC(N)=O)C3=C(C(=O)C(C)=C(N)C3=O)N1CC1C2N1C` (stereo unspecified) as the compound, how does the T/C [8] read?
A: 96 % of control

Q: And the T/C (dose: 5.0 mg/kg/injection, schedule: Q01DX Z (ip), vehicle: carboxymethylcellulose (CMC))?
A: 103 % of control

Q: And the T/C (dose: 10.0 mg/kg/injection, schedule: Q01DX Z (ip), vehicle: carboxymethylcellulose (CMC))?
A: 122 % of control

Q: And the T/C (dose: 20.0 mg/kg/injection, schedule: Q01DX Z (ip), vehicle: carboxymethylcellulose (CMC))?
A: 88 % of control

Q: Which T/C [5] does the source give for `C[C@]12C=CC(=O)C=C1CC[C@@H]1[C@@H]2[C@@H](O)C[C@@]2(C)[C@H]1CC[C@]2(O)C(=O)CO` here?
A: 104 % of control

Q: And the T/C [6]?
A: 104 % of control and 124 % of control

Q: And the T/C [7]?
A: 94 % of control
